Data: PMC5382548 (Scientific Reports, 2015)

What was measured:
[1] = system: T-loop, a 26-mer hairpin double-stranded DNA; test: FRET melting assay, T-loop hairpin ds-DNA; assay type: binding; conditions: ds-DNA 0.2 μM, ligand 1 μM, K-cacodylate buffer pH 7.4, 60 mM K+
Experimental: (§1) Fluorescence resonance energy transfer (FRET) studies with DNA sequences labelled at the 5′ and 3′ ends, were conducted to evaluate the G4 DNA stabilizing properties of IQcs (at 0.1 to 5 μM ligand concentrations). The G4-forming sequence KRAS21R[11], together with T-loop, a 26-mer hairpin double-stranded DNA (ds-DNA) sequence were used in the first screening assay. Reproducible IQc dose-dependent melting curves (Sup. Inf.; Figure S3) and stabilization temperature (ΔTm) values were obtained (Figure 2 and Table S5).
(§2) Figure 2 FRET stabilization temperatures (ΔTm) of KRAS21R G4 and hairpin ds-DNA (T-loop) at 0.2 μM, in K-cacodylate buffer (pH = 7.4, 60 mM K^+), stabilized by IQc derivatives and TMPyP4 at 1 μM. ^a) SD ≤ 0.2°C. TEXT PRINTED IN THE PICTURE: TMPyP4: ΔTm / °C ^a) (T-Loop): 16.0; ΔTm / °C ^a) (KRAS21R): 25.1 | 3e: ΔTm / °C ^a) (T-Loop): 6.5; ΔTm / °C ^a) (KRAS21R): 22.0 | 3d: ΔTm / °C ^a) (T-Loop): 5.6; ΔTm / °C ^a) (KRAS21R): 19.9 | 2d: ΔTm / °C ^a) (T-Loop): 6.1; ΔTm / °C ^a) (KRAS21R): 15.1 | 2a: ΔTm / °C ^a) (T-Loop): 1.5; ΔTm / °C ^a) (KRAS21R): 4.4 […]
(§3) Oligonucleotide sequences were purchased from Eurofins MWG Synthesis GmbH, Germany or STAB VIDA Genomics Lab, Caparica, Lisbon, Portugal. The labelled oligonucleotides used in the FRET assays had attached the donor fluorophore FAM (6-carboxyfluorescein) and the acceptor fluorophore TAMRA (6-carboxytetramethylrhodamine): KRAS21R: 5′-FAM-[…]-TAMRA-3′; KRAS32R: 5′-FAM-[…]-TAMRA-3′; UTR-1: 5′-FAM-GCGGCGGCGGAGG-TAMRA-3′; UTR-2: 5′-FAM-[…]-TAMRA-3; T-Loop:5′-FAM-[…]-TAMRA-3′; F21T: 5′-FAM-[…]-TAMRA-3′. Non-labelled oligonucleotides were used in FRET competition assays and in the spectroscopic studies: ds26: - d(5′-CAATCGGATCGAATT CGATCCGATTG-3′); KRAS21R: 5′-[…]-3′; HT21: 5′-[…]-3′. Each oligonucleotide was initially diluted to a storage solution at 100 μM in nuclease-free water (not DEPC-treated), purchased from Ambion Applied Biosystems UK.
(§4) The ability of indolo[3,2-c]quinolines to stabilize DNA sequences was investigated using a Fluorescence Resonance Energy Transfer (FRET) assay as reported elsewhere.
(§5) Figure S3 (cont.)| Concentration-dependent (0.1, 0.5, 1, 2, 3, 4 and 5 µM) FRET melting profiles of G4 structures and T-loop DNA with indolo[3,2-c]quinoline derivatives 1a, 2a-g and 3d-j in K-cacodylate buffer (pH 7.4, 60 mM K+). […]
(§6) Table S5 | FRET stabilization temperatures (ΔTm) of G4s sequences and ds-DNA (0.2 µM) stabilized by […]

[2] = system: KRAS21R G4; test: FRET melting assay, KRAS21R G4; assay type: binding, human; conditions: G4 0.2 μM, ligand 1 μM, K-cacodylate buffer pH 7.4, 60 mM K+
Experimental: as §1, §2, §3, §4, §5, §6

[3] = system: SW620 (metastatic colon); test: MTS short-term cytotoxicity assay, SW620; assay type: cell-based; conditions: Homo sapiens, SW-620; MTS assay, 72 h; read-out: IC50 SW620
Experimental: (§7) Short-term anti-proliferative assays were carried out by two different assays using a panel of human cancer and non-malignant human cell lines. […] The transformed human embryonic kidney cell line HEK293T (wt KRAS) was sensitive to all tested drugs, including TMPyP4, a cationic porphyrin established as a G4 ligand, as well as the anticancer drug 5-fluorouracil (5-FU).
(§8) HCT116 human colon carcinoma cells, SW620 human colorectal adenocarcinoma and HEK293 T human embryonic kidney cells were grown in Dulbecco's modified Eagle's medium (DMEM) supplemented with 10% fetal bovine serum, and 1% antibiotic/antimycotic (Invitrogen, Grand Island, NY, USA) and maintained at 37°C in a humidified atmosphere of 5% CO2. Cells were seeded in 96 well plates at 5.000 cells/well. Twenty-four hours after cell plating, media was removed and replaced with fresh media containing test compounds and 5-FU (Sigma), a common cytotoxic agent used in colon cancer treatmen, or vehicle control (DMSO). Following 72 h of compound exposure, cell viability was evaluated using the CellTiter 96 AQueous Non-Radioactive Cell Proliferation Assay (Promega, Madison, WI, USA), using 3-(4,5-dimethylthiazol-2-yl)-5-(3-carboxymethoxyphenyl)-2-(4-sulfophenyl)-2H-tetrazolium, inner salt (MTS) as previously described. Cell viability data were expressed as mean ± SEM or mean ± SD from at least three independent experiments. IC50 and IC65 values were determined using GaphPad Prism v.5.00 (GraphPad Software). (Performed at Cell Function and Therapeutic Targeting Group, iMed.ULisboa)

[4] = system: HCT116 (colon); test: MTS short-term cytotoxicity assay, HCT116; assay type: cell-based, human; conditions: Homo sapiens, HCT-116; MTS assay, 72 h; read-out: IC50 HCT116
Experimental: as §7, §8

[5] = system: HEK293T (embryonic kidney); test: MTS short-term cytotoxicity assay, HEK293T; assay type: cell-based; conditions: Homo sapiens, HEK-293T; MTS assay, 72 h; read-out: IC50 HEK293T
Experimental: as §7, §8

[6] = system: colon cancer cell lines with mutated KRAS; test: Anti-proliferative activity, colon cancer cell lines with mutated KRAS; assay type: cell-based; conditions: Homo sapiens; range over HCT116 and SW620
Description: These differences may be due to differing effects on cellular proliferation mechanisms, on cellular uptake and/or intracellular distribution. Assuming a passive diffusion membrane transport for IQcs, compound 2d is expected to accumulate more inside cells due to its predicted higher lipophilicity than compounds with an additional protonated basic group at physiologic pH (3d and 3e). Similarly, the tetra-cationic porphyrin TMPyP4, which is known to have low cell-membrane permeability, gave higher IC50 values.
as §8, with “Cells were seeded in 96 well plates at 5.000 cells/well. Twenty-four hours after cell plating, media was removed and replaced with fresh media containing test compounds and 5-FU (Sigma), a common cytotoxic agent used in colon cancer treatmen, or vehicle control (DMSO).” left out, “(Performed at Cell Function and Therapeutic Targeting Group, iMed.ULisboa)” left out

[7] = system: SW620 metastatic colon cancer cells; test: Guava ViaCount assay, SW620; assay type: cell-based, human; conditions: IC65 concentration, 72 h
Description: The ability of IQcs to induce cell death in colon cancer cell lines with different genotypes (HCT116 and SW620) and in the non-malignant cell line HEK293T was studied by a Guava Via Count assay and compared with the behaviour of 5-FU and TMPyP4 at equitoxic concentrations (IC50 and IC65). Results in Figure 7 show dose-dependent induction of cell death, mainly by apoptosis, by all tested compounds in the HCT116 colon cancer cell line. […] In SW620 metastatic colon cancer cells, cell death induction was highly dependent on the number and position of side chains in IQc compounds. […]
Figure 7 Evaluation of the effect of IQc on cell viability using the ViaCount assay. […] Results are expressed as the mean percentage (%) of viable (white), mid-apoptotic (grey) and dead (black) cells ± SEM, of at least three different experiments, for (a) IC50, and for (b) IC65 compound concentrations. a, p < 0.05; b, p < 0.01 from DMSO (vehicle control); c, p < 0.05; and d, p < 0.01 from 5-FU. […]
Taqman Real-time PCR reactions were performed using 1.5 µg of total RNA, using High Capacity RNA to cDNA kit, according to the manufacturer`s instruction. […] The comparative threshold cycle method was used to calculate the amplification factor, where the threshold cycle (Ct) is defined as the cycle number at which the fluorescence passes the fixed threshold intensity level. […]

Structure (SMILES) | FRET stabilization temperature ΔTm (T-loop) [1] [°C] | FRET stabilization temperature ΔTm (KRAS21R) [2] | also measured
C[n+]1cc2c3cc(NCCCN4CCOCC4)ccc3[nH]c2c2cc(NCCCN3CCOCC3)ccc21 [3f] | 4.9 | 14.1 °C | 
CCN(CC)CCNc1ccc2c(c1)c1[nH]c3ccccc3c1c[n+]2C [2b] | 7.2 | 12.6 °C | 
CCN(CC)CCCC(C)Nc1ccc2[nH]c3c(c[n+](C)c4ccc(NC(C)CCCN(CC)CC)cc34)c2c1.[Cl-] (centres unmarked) [3h] | 1.7 | 11.8 °C | 
Brc1ccc2ncc3c4ccccc4[nH]c3c2c1 [compound 1] | 0.4 | reduced or negligible ability to stabilize the KRAS21R G4 | IC50 [3]: 10.7 µM; IC50 [4]: 9.91 µM; FRET stabilization temperature ΔTm (KRAS21R) ([2]; listed as 1a): 0.7 °C; IC50 [5]: 8.03 µM
C[n+]1cc2c3ccccc3[nH]c2c2cc(NCCCN3CCCCC3)ccc21 [2e] | 5.2 | 13.4 °C | 
O=c1[nH]cc(F)c(=O)[nH]1 [5-FU, 5-fluorouracil, reference compound] |  |  | IC50 [6]: 2.38 to 5.39 µM; Cell death induced, SW620 [7]: > 20%
C[n+]1cc2c3ccc(NCCCN4CCOCC4)cc3[nH]c2c2cc(NCCCN3CCOCC3)ccc21 [3g] | 2.9 | 13.2 °C | 
C[n+]1cc2c3ccccc3[nH]c2c2cc(NCCCN3CCOCC3)ccc21 [2f] | 3.4 | 10.1 °C | 
CCN(CC)CCCC(C)Nc1ccc2c(c1)c1[nH]c3ccccc3c1c[n+]2C.[Cl-] (centres unmarked) [2g] | 1.9 | 15.4 °C | 
CCN(CC)CCCC(C)Nc1ccc2c(c1)[nH]c1c2c[n+](C)c2ccc(NC(C)CCCN(CC)CC)cc12.[Cl-] (centres unmarked) [3i] | 2.4 | 13.9 °C | 
CCN(CC)CCCNc1ccc2c(c1)[nH]c1c2c[n+](Cc2ccccc2)c2ccc(NCCCN(CC)CC)cc12.[Cl-] [3j] | 5.2 | 16.8 °C | 
Brc1ccc2c3cn(Cc4ccccc4)c4ccc(Br)cc4c-3nc2c1 [3c] | 0.3 |  | 
CC(C)NCCCNc1ccc2c(c1)c1[nH]c3ccccc3c1c[n+]2C [2c] | 9.1 | 14.5 °C | 
